{"source": "patent US9573964B2", "about": "“Oxygen linked pyrimidine derivatives” (CTI BIOPHARMA CORP., priority 2005, dated 2017)", "key": {"[1]": {"system": "MV4-11 (acute myeloid leukemia cell line)", "assay": "Cell-based proliferation assay for GI50, MV4-11", "conditions": "Homo sapiens; MV4-11 cells, 96 h treatment", "experimental": "(§1) Human cancer cell lines HL60 (acute myeloid leukemia cell line), Colo205 (colon adenocarcinoma cell line), HEL92.1.7 (erythroleukemia cell line) and MV4-11 (acute myeloid leukemia cell line) were obtained from ATCC. They were cultivated in the media according to the ATCC work instructions. Colo205 cells were seeded in 96-wells plate at 5000 cells per well. HEL92.1.7 and MV4-11 cells were seeded at 6000 cells per well while HL60 cells were seeded at 8000 cells per well in 96 well plate. The plates were incubated at 37° C., 5% CO2, for 24 h. Cells were treated with compounds at various concentrations for 96 h. Cell growth was then monitored using Celltiter96 Aqueous One Solution Cell Proliferation Assay from Promega (Madison Wis.). Dose response curves were plotted to determine GI50 values for the compounds using XL-fit (ID Business Solution, Emeryville, Calif.)."}, "[2]": {"system": "HEL92.1.7 (erythroleukemia cell line)", "assay": "Cell-based proliferation assay for GI50, HEL92.1.7", "conditions": "Homo sapiens, HEL 92.1.7; HEL92.1.7 cells, 96 h treatment", "experimental": "as §1"}, "CDK2/CyclinA": {"molecular_target": "T1, CDK2/CyclinA (Homo sapiens, UniProt P24941)", "T1 construct": "purchased Invitrogen PV3267", "assay": "In vitro kinase activity assay (PKLight), CDK2/Cyclin A", "format": "biochemical", "conditions": "0.5 μM ATP", "experimental": "(§2) The recombinant enzymes (CDK2/CyclinA, FLT3, JAK2 and JAK2 V617F) were purchased from Invitrogen (Cat #PV3267, 3182, 4210 and 4347 respectively). All assays were carried out in 384-well white microtiter plates using the PKLight assay system from Cambrex (East Rutherford, N.J.). This assay platform is essentially a luminometric assay for the detection of ATP in the reaction using a luciferase-coupled reaction. For CDK2/Cyclin A assay, the reaction mixture consisted of the following components in 25 μL assay buffer (50 mM Hepes pH 7.5, 10 mM MgCl2, 5 mM MnCl2, 5 mM BGP, 1 mM DTT, 0.1 mM sodium orthovanadate), 1.4 μg/mL of CDK2/Cyclin A complex, 0.5 μM of RbING substrate (Invitrogen, Cat #PV2939) and 0.5 μM of ATP. The compounds were tested at 8 concentrations prepared from 4-fold serial dilution starting at 10 μM. The reaction was incubated at room temperature for 2 hr. 13 μL of PKLight ATP detection reagent was added and the reaction was incubated for 10 min. Luminescence signals were detected on a multi-label plate reader (Victor^2 V 1420, Perkin-Elmer). The other kinase assays were identical except for the following differences in reagents. For FLT3 assays, the reaction contained 2.0 μg/mL FLT3 enzyme, 5 μM of poly(Glu,Tyr) substrate (Sigma, Cat #P0275) and 4 μM of ATP. For JAK2 assays, the reaction contained 0.6 μg/mL of JAK2 enzyme, 2 μM of poly(Glu,Ala,Tyr) substrate (Sigma, Cat #P3899) and 0.2 μM of ATP. For JAK2 V617F mutant assays, the reaction contained 8.0 μg/mL of JAK2 mutant enzyme, 2 μM of poly(Glu,Ala,Tyr) substrate (Sigma, Cat #P3899) and 0.2 μM of ATP. The analytical software, Prism 4.0 (GraphPad Software Pte Ltd) was used to generate IC50 values from the data."}, "JAK2": {"molecular_target": "T2, JAK2 (Homo sapiens, UniProt O60674)", "T2 construct": "purchased Invitrogen PV4210", "assay": "In vitro kinase activity assay (PKLight), JAK2", "format": "biochemical", "experimental": "as §2, with “All” for “The recombinant enzymes (CDK2/CyclinA, FLT3, JAK2 and JAK2 V617F) were purchased from Invitrogen (Cat #PV3267, 3182, 4210 and 4347 respectively). All”, “For JAK2 V617F mutant assays, the reaction contained 8.0 μg/mL of JAK2 mutant enzyme, 2 μM of poly(Glu,Ala,Tyr) substrate (Sigma, Cat #P3899) and 0.2 μM of ATP.” left out"}, "[3]": {"system": "Colo205 (colon adenocarcinoma cell line)", "assay": "Cell-based proliferation assay for GI50, Colo205", "conditions": "Homo sapiens, COLO 205; Colo205 cells, 96 h treatment", "experimental": "as §1"}, "[4]": {"system": "HL60 (acute myeloid leukemia cell line)", "assay": "Cell-based proliferation assay for GI50, HL60", "conditions": "Homo sapiens, HL-60; HL60 cells, 96 h treatment", "experimental": "as §1"}, "JAK2 V617F": {"molecular_target": "T3, JAK2 V617F (Homo sapiens, UniProt O60674, V617F)", "T3 construct": "purchased Invitrogen PV4347", "T3 sequence (O60674 whole entry V617F)": "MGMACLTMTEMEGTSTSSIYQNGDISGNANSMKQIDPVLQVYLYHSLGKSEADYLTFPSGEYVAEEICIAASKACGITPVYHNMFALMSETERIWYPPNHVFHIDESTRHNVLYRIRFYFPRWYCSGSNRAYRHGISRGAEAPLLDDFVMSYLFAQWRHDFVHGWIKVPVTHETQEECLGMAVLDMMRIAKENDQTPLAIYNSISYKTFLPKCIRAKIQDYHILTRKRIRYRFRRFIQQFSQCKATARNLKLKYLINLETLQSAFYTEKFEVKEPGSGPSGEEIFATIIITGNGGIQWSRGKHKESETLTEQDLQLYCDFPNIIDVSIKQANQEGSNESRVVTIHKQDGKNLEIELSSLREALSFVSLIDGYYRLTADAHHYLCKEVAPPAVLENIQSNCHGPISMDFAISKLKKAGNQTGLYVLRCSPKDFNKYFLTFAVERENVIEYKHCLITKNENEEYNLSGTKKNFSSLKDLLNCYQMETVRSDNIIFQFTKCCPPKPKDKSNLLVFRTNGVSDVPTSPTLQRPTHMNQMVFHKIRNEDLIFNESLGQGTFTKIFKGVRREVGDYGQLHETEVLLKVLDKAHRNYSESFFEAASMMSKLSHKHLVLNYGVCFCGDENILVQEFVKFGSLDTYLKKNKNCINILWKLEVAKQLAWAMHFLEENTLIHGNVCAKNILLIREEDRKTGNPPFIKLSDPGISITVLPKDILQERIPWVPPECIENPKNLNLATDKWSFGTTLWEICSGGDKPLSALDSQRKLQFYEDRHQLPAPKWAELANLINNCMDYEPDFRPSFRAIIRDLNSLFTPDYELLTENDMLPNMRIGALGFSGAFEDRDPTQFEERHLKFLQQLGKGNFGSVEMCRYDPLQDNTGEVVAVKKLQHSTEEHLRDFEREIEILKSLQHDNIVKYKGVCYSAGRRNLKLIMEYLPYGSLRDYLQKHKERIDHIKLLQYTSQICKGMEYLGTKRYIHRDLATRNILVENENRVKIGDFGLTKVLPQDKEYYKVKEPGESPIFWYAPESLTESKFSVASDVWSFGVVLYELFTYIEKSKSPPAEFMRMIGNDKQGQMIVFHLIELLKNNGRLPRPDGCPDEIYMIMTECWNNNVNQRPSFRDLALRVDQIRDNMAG", "assay": "In vitro kinase activity assay (PKLight), JAK2 V617F mutant", "format": "biochemical", "experimental": "as §2, with “All” for “The recombinant enzymes (CDK2/CyclinA, FLT3, JAK2 and JAK2 V617F) were purchased from Invitrogen (Cat #PV3267, 3182, 4210 and 4347 respectively). All”, “For JAK2 V617F mutant assays, the reaction contained 8.0 μg/mL of JAK2 mutant enzyme, 2 μM of poly(Glu,Ala,Tyr) substrate (Sigma, Cat #P3899) and 0.2 μM of ATP.” left out"}, "FLT3": {"molecular_target": "T4, FLT3 (Homo sapiens, UniProt P36888)", "T4 construct": "purchased Invitrogen PV3182", "T4 sequence (P36888 27-993)": "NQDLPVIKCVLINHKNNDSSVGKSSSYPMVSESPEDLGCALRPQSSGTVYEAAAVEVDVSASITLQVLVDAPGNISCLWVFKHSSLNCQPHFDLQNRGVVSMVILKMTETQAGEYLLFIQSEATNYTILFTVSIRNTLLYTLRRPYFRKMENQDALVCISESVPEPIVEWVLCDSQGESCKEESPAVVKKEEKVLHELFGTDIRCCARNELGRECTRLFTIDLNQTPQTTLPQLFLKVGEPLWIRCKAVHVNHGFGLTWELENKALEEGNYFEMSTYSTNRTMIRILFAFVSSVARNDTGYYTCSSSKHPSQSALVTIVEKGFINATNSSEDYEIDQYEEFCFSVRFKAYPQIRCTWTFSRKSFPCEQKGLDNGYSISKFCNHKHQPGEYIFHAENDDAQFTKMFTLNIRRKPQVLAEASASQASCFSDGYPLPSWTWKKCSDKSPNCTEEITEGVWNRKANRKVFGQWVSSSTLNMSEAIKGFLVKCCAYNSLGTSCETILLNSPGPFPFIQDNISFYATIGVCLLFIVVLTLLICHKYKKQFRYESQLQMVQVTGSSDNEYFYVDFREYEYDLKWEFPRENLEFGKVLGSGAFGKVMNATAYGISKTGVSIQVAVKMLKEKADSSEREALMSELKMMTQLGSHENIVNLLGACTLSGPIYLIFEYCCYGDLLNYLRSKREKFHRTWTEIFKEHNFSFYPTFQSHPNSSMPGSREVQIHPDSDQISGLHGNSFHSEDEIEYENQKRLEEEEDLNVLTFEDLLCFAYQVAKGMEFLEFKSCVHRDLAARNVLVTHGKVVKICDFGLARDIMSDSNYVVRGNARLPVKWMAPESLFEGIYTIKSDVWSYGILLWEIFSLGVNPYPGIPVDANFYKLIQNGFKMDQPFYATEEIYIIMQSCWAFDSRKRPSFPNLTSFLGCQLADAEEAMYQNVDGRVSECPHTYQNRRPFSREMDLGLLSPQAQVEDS", "assay": "In vitro kinase activity assay (PKLight), FLT3", "format": "biochemical", "experimental": "as §2, with “All” for “The recombinant enzymes (CDK2/CyclinA, FLT3, JAK2 and JAK2 V617F) were purchased from Invitrogen (Cat #PV3267, 3182, 4210 and 4347 respectively). All”, “For JAK2 V617F mutant assays, the reaction contained 8.0 μg/mL of JAK2 mutant enzyme, 2 μM of poly(Glu,Ala,Tyr) substrate (Sigma, Cat #P3899) and 0.2 μM of ATP.” left out"}}}
{"molecule": "CCN(CC)CCOc1ccc2cc1COC/C=C/CCOc1cc(ccc1OC)-c1ccnc(n1)N2", "note": "[Compound 20]", "values": [{"measurement": "GI50", "setting": "[1]", "value": "≤ 1", "unit": "µM"}, {"measurement": "GI50", "setting": "[2]", "value": "> 5", "unit": "µM"}, {"measurement": "IC50", "setting": "CDK2/CyclinA", "value": "> 5", "unit": "µM"}, {"measurement": "IC50", "setting": "JAK2", "value": "≤ 1", "unit": "µM"}, {"measurement": "GI50", "setting": "[3]", "value": "> 5", "unit": "µM"}, {"measurement": "GI50", "setting": "[4]", "value": "1 to 5", "unit": "µM"}, {"measurement": "IC50", "setting": "JAK2 V617F", "value": "≤ 1", "unit": "µM"}, {"measurement": "IC50", "setting": "FLT3", "value": "≤ 1", "unit": "µM"}]}
